System: 889142-216-R-J1-PDC complex spheroid viability
Experiment: Anticancer human tumor 889142-216-R-J1-PDC patient-derived bladder carcinoma cell line growth inhibition [POLQ]
Conditions: for IC50: curve of first compound; for viability, T/C: stronger effect = lower value
Procedure, shortened: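 Patient-derived tumour cells were co-cultured with HUVEC and mesenchymal stem cells as multicellular spheroids at 37 °C. They were treated with POLQ inhibitors (novobiocin, ART-558, RP6685) alone or combined with other agents. Top concentrations were at or near clinical Cmax (otherwise 10 microM; SN-38 at 1 microM), decreasing in half-log steps.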

[1] = second compound 0.0316 µM, first compound 0.0316 µM
[2] = second compound 0.0316 µM, first compound 0.1 µM
[3] = second compound 0.0316 µM, first compound 0.316 µM
[4] = second compound 0.0316 µM, first compound 1 µM
[5] = second compound 0.0316 µM, first compound 3.16 µM
[6] = second compound 0.0316 µM, first compound 10 µM
[7] = second compound 0.1 µM, first compound 0.0316 µM
[8] = second compound 0.1 µM, first compound 0.1 µM
[9] = second compound 0.1 µM, first compound 0.316 µM
[10] = second compound 0.1 µM, first compound 1 µM
[11] = second compound 0.1 µM, first compound 3.16 µM
[12] = second compound 0.1 µM, first compound 10 µM
[13] = second compound 0.316 µM, first compound 0.0316 µM
[14] = second compound 0.316 µM, first compound 0.1 µM
[15] = second compound 0.316 µM, first compound 0.316 µM
[16] = second compound 0.316 µM, first compound 1 µM
[17] = second compound 0.316 µM, first compound 3.16 µM
[18] = second compound 0.316 µM, first compound 10 µM
[19] = second compound 1 µM, first compound 0.0316 µM
[20] = second compound 1 µM, first compound 0.1 µM
[21] = second compound 1 µM, first compound 0.316 µM
[22] = second compound 1 µM, first compound 1 µM
[23] = second compound 1 µM, first compound 3.16 µM
[24] = second compound 1 µM, first compound 10 µM
[25] = second compound 3.16 µM, first compound 0.0316 µM
[26] = second compound 3.16 µM, first compound 0.1 µM
[27] = second compound 3.16 µM, first compound 0.316 µM
[28] = second compound 3.16 µM, first compound 1 µM
[29] = second compound 3.16 µM, first compound 3.16 µM
[30] = second compound 3.16 µM, first compound 10 µM
[31] = second compound 10 µM, first compound 0.0316 µM
[32] = second compound 10 µM, first compound 0.1 µM
[33] = second compound 10 µM, first compound 0.316 µM
[34] = second compound 10 µM, first compound 1 µM
[35] = second compound 10 µM, first compound 3.16 µM
[36] = second compound 10 µM, first compound 10 µM
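Also: spheroids exposed to compounds for seven days.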
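For viability, T/C in this document: 100% = DMSO vehicle control viability.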

Question: Which results are given for `CCCS(=O)(=O)Nc1ccc(F)c(C(=O)c2c[nH]c3ncc(-c4ccc(Cl)cc4)cc23)c1F` + Nc1ccc(C#CCN(C(=O)Cc2ncc(C(F)(F)F)cc2C(F)(F)F)c2ccc(F)cc2)nn1?
Answer: IC50 (second compound 0.0316 µM): 7.49 µM; IC50 (second compound 0.1 µM): 7.28 µM; IC50 (second compound 0.316 µM): 7.56 µM; IC50 (second compound 1 µM): > 10 µM; IC50 (second compound 3.16 µM): 9.53 µM; IC50 (second compound 10 µM): > 10 µM; viability, T/C [1]: 97.8%; viability, T/C [2]: 118%; viability, T/C [3]: 122%; viability, T/C [4]: 98.3%; viability, T/C [5]: 71.5%; viability, T/C [6]: 42.8%; viability, T/C [7]: 114%; viability, T/C [8]: 98.7%; viability, T/C [9]: 92.8%; viability, T/C [10]: 96.5%; viability, T/C [11]: 69.6%; viability, T/C [12]: 41.7%; viability, T/C [13]: 105%; viability, T/C [14]: 101%; viability, T/C [15]: 87.4%; viability, T/C [16]: 78.6%; viability, T/C [17]: 80.3%; viability, T/C [18]: 40.6%; viability, T/C [19]: 105%; viability, T/C [20]: 81.6%; viability, T/C [21]: 129%; viability, T/C [22]: 76.2%; viability, T/C [23]: 63.3%; viability, T/C [24]: 49.4%; viability, T/C [25]: 93.7%; viability, T/C [26]: 92.1%; viability, T/C [27]: 116%; viability, T/C [28]: 94.2%; viability, T/C [29]: 92.5%; viability, T/C [30]: 47.9%; viability, T/C [31]: 93.2%; viability, T/C [32]: 103%; viability, T/C [33]: 98.7%; viability, T/C [34]: 96.8%; viability, T/C [35]: 77.5%; viability, T/C [36]: 59.2%

Question: `O=C(Nc1ccc(O)c(NS(=O)(=O)c2ccc(F)cc2)c1)c1ccc(-c2ccccc2)cc1` + COC1C(OC(N)=O)C(O)C(Oc2ccc3c(O)c(NC(=O)c4ccc(O)c(CC=C(C)C)c4)c(=O)oc3c2C)OC1(C)C was tested. Which IC50 (second compound 0.0316 µM) did it give?
Answer: > 10 µM

Question: What about the IC50 (second compound 0.1 µM) of the same compound?
Answer: > 10 µM

Question: What about the IC50 (second compound 0.316 µM) of the same compound?
Answer: > 10 µM

Question: What about the IC50 (second compound 1 µM) of the same compound?
Answer: > 10 µM

Question: And the IC50 (second compound 3.16 µM)?
Answer: > 10 µM

Question: And the IC50 (second compound 10 µM)?
Answer: > 10 µM

Question: And the viability, T/C [1]?
Answer: 122%

Question: What about the viability, T/C [2] of the same compound?
Answer: 98.7%

Question: What about the viability, T/C [3] of the same compound?
Answer: 115%

Question: And the viability, T/C [4]?
Answer: 116%

Question: What about the viability, T/C [5] of the same compound?
Answer: 116%

Question: And the viability, T/C [6]?
Answer: 67.2%

Question: And the viability, T/C [7]?
Answer: 93.9%

Question: And the viability, T/C [8]?
Answer: 90.7%

Question: What about the viability, T/C [9] of the same compound?
Answer: 92.6%

Question: What about the viability, T/C [10] of the same compound?
Answer: 108%

Question: What about the viability, T/C [11] of the same compound?
Answer: 111%

Question: And the viability, T/C [12]?
Answer: 64.7%

Question: And the viability, T/C [13]?
Answer: 128%

Question: And the viability, T/C [14]?
Answer: 110%

Question: What about the viability, T/C [15] of the same compound?
Answer: 99.9%

Question: What about the viability, T/C [16] of the same compound?
Answer: 125%

Question: What about the viability, T/C [17] of the same compound?
Answer: 139%

Question: What about the viability, T/C [18] of the same compound?
Answer: 73.8%

Question: And the viability, T/C [19]?
Answer: 103%

Question: And the viability, T/C [20]?
Answer: 115%

Question: And the viability, T/C [21]?
Answer: 114%

Question: What about the viability, T/C [22] of the same compound?
Answer: 107%

Question: What about the viability, T/C [23] of the same compound?
Answer: 105%

Question: And the viability, T/C [24]?
Answer: 75.9%

Question: And the viability, T/C [25]?
Answer: 87.7%

Question: And the viability, T/C [26]?
Answer: 108%

Question: And the viability, T/C [27]?
Answer: 96.2%

Question: And the viability, T/C [28]?
Answer: 117%

Question: And the viability, T/C [29]?
Answer: 126%

Question: What about the viability, T/C [30] of the same compound?
Answer: 73.6%

Question: What about the viability, T/C [31] of the same compound?
Answer: 99.8%

Question: And the viability, T/C [32]?
Answer: 103%

Question: What about the viability, T/C [33] of the same compound?
Answer: 101%

Question: And the viability, T/C [34]?
Answer: 118%

Question: What about the viability, T/C [35] of the same compound?
Answer: 107%

Question: What about the viability, T/C [36] of the same compound?
Answer: 63.7%

Question: Which results are given for `CCc1c2c(nc3ccc(O)cc13)-c1cc3c(c(=O)n1C2)COC(=O)[C@]3(O)CC` + Cc1cccc(N(C)C(=O)C2C(O)CCN2c2nc(C)cc(C(F)(F)F)c2C#N)c1?
Answer: IC50 (second compound 0.0316 µM): 0.0206 µM; IC50 (second compound 0.1 µM): 0.017 µM; IC50 (second compound 0.316 µM): 0.014 µM; IC50 (second compound 1 µM): 0.0145 µM; IC50 (second compound 3.16 µM): 0.0194 µM; IC50 (second compound 10 µM): 0.00621 µM; viability, T/C (second compound 0.0316 µM, first compound 0.00316 µM): 68.8%; viability, T/C (second compound 0.0316 µM, first compound 0.01 µM): 48.8%; viability, T/C [1]: 50.4%; viability, T/C [2]: 30.2%; viability, T/C [3]: 35.8%; viability, T/C [4]: 10.7%; viability, T/C (second compound 0.1 µM, first compound 0.00316 µM): 58.9%; viability, T/C (second compound 0.1 µM, first compound 0.01 µM): 56%; viability, T/C [7]: 44.7%; viability, T/C [8]: 34%; viability, T/C [9]: 28.4%; viability, T/C [10]: 10.4%; viability, T/C (second compound 0.316 µM, first compound 0.00316 µM): 58.4%; viability, T/C (second compound 0.316 µM, first compound 0.01 µM): 57.3%; viability, T/C [13]: 37.2%; viability, T/C [14]: 35.6%; viability, T/C [15]: 27.7%; viability, T/C [16]: 8.37%; viability, T/C (second compound 1 µM, first compound 0.00316 µM): 64%; viability, T/C (second compound 1 µM, first compound 0.01 µM): 51.3%; viability, T/C [19]: 39%; viability, T/C [20]: 35.3%; viability, T/C [21]: 31.1%; viability, T/C [22]: 9.07%; viability, T/C (second compound 3.16 µM, first compound 0.00316 µM): 60.5%; viability, T/C (second compound 3.16 µM, first compound 0.01 µM): 60.4%; viability, T/C [25]: 40.9%; viability, T/C [26]: 34%; viability, T/C [27]: 30.3%; viability, T/C [28]: 5.91%; viability, T/C (second compound 10 µM, first compound 0.00316 µM): 52%; viability, T/C (second compound 10 µM, first compound 0.01 µM): 51.9%; viability, T/C [31]: 35.9%; viability, T/C [32]: 34.7%; viability, T/C [33]: 26.1%; viability, T/C [34]: 6.24%

Question: What does the source list for `C=CC(=O)N1CCN(c2nc(=O)n(-c3c(C)ccnc3C(C)C)c3nc(-c4c(O)cccc4F)c(F)cc23)C(C)C1` (stereo not drawn) + Cc1cccc(N(C)C(=O)C2C(O)CCN2c2nc(C)cc(C(F)(F)F)c2C#N)c1?
Answer: IC50 (second compound 0.0316 µM): > 10 µM; IC50 (second compound 0.1 µM): > 10 µM; IC50 (second compound 0.316 µM): > 10 µM; IC50 (second compound 1 µM): > 10 µM; IC50 (second compound 3.16 µM): > 10 µM; IC50 (second compound 10 µM): > 10 µM; viability, T/C [1]: 108%; viability, T/C [2]: 93.5%; viability, T/C [3]: 102%; viability, T/C [4]: 115%; viability, T/C [5]: 122%; viability, T/C [6]: 81.4%; viability, T/C [7]: 110%; viability, T/C [8]: 112%; viability, T/C [9]: 100%; viability, T/C [10]: 101%; viability, T/C [11]: 132%; viability, T/C [12]: 96.2%; viability, T/C [13]: 97.4%; viability, T/C [14]: 119%; viability, T/C [15]: 123%; viability, T/C [16]: 116%; viability, T/C [17]: 129%; viability, T/C [18]: 106%; viability, T/C [19]: 104%; viability, T/C [20]: 107%; viability, T/C [21]: 107%; viability, T/C [22]: 111%; viability, T/C [23]: 124%; viability, T/C [24]: 89.3%; viability, T/C [25]: 98.5%; viability, T/C [26]: 89.3%; viability, T/C [27]: 93.8%; viability, T/C [28]: 97.2%; viability, T/C [29]: 138%; viability, T/C [30]: 87.9%; viability, T/C [31]: 91.1%; viability, T/C [32]: 74.8%; viability, T/C [33]: 82.5%; viability, T/C [34]: 100%; viability, T/C [35]: 106%; viability, T/C [36]: 76.7%

Reference: PubChem BioAssay AID1963831 (Molecular Pharmacology Branch, DTP, NCI, 2024)
